Results from US8354431B2, “Aryl carboxylic acid cyclohexyl amide derivatives” (Novartis AG, priority 2007, dated 2013).

Columns and labels:
hCCR2b = molecular target: T1, hCCR2b (Homo sapiens, UniProt P41597); assay: CCR2 membrane binding assay (SPA, [125I] MCP-1); conditions: table does not name the assay; b437 says 'in these assays'
T1 construct: expressed in transfected cells; host or cells: CHO-dukX
T1 sequence (P41597 1-360 isoform P41597-2): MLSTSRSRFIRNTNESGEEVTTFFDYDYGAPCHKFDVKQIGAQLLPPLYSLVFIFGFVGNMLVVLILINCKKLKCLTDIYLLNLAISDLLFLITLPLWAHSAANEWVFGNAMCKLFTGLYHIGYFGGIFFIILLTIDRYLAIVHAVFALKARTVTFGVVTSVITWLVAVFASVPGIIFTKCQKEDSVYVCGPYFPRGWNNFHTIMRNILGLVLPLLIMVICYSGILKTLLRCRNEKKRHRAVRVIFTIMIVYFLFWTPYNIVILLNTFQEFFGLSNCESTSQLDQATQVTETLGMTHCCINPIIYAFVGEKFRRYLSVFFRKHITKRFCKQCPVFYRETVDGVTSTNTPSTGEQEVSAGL
Description: Transfected CHO-dukX cells stably expressing the hCCR2b gene are grown in MEM alpha medium to a confluency of between 70 and 80%. After discarding the medium, 30 ml ice-cold physiological buffer solution containing 1 mM EDTA are added and the cells removed from the plate using a scraper. The cell suspension is centrifuged at 800 g for 10′ at 4° C. and the cell pellet resuspended in buffer. Cell lysis is done using a Polytron PTI300D instrument at 28 000 RPM for 2 times 30 seconds on ice. Membranes are collected by centrifugation at 42 000 g for 20 minutes at 4° C. and subjected to a second round of lysis (Polytron, 28 000 RPM, 2×30 seconds on ice). Following centrifugation at 42 000 g for 20 minutes at 4° C. the membranes are resuspended in buffer at a protein concentration of 2 mg/ml and stored at −80° C. Ten millimolar stock solutions of test compounds in 100% DMSO are prepared. Test compounds are further diluted in buffer to yield the four-fold concentrated solutions for the tests that assayed a range of 10^−10 to 10^−5 M. The SPA assay is performed in a final volume of 200 μl per well in 96 well plates. The components are added per well in the following order: • 50 μl Buffer (+/−test compound) • 50 μl Wheat germ agglutinin-SPA beads (1.25 mg/well) in buffer • 50 μl CCR2B membrane suspension diluted with buffer to 0.04 mg/ml (2 μg/well), alternatively 50,000 cells per well • 50 μl [^125I] MCP-1 in buffer (60 pM final concentration, 2.5 μCi/plate)
After addition of all components the plate is sealed and incubated for 90 minutes at room temperature with constant shaking. Following incubation the plate is centrifuged at 1000 RPM in a Sorvall RC3B centrifuge for 4 minutes at room temperature and counted for 3 minutes per well in a TOP COUNT instrument (Packard). The quench-corrected counts are used for the analysis of radioligand binding.

Human CCR5 = molecular target: T2, Human CCR5 (Homo sapiens, UniProt P51681); assay: CCR5 membrane binding assay ([I-125]MIP-1α); conditions: table does not name the assay; b437 says 'in these assays'
T2 construct: expressed in transfected cells; host or cells: CHO K1
T2 sequence (P51681 whole entry): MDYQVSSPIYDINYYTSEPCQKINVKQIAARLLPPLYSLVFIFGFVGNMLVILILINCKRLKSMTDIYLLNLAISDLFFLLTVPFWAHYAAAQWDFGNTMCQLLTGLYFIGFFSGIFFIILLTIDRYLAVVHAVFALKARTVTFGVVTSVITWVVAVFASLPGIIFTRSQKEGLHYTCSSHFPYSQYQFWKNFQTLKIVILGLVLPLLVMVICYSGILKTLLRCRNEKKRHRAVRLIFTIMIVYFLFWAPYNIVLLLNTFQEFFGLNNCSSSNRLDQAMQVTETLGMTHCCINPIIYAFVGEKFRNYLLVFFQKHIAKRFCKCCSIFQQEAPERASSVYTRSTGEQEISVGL
Description: Human CCR5 is used to generate stable transfectants in CHO K1 cells. Membranes prepared from these CCR5 transfectants are used in a radioligand binding assay using 125-1-MIP-1α as a ligand and the compounds of formula I are tested for inhibitory activity. The data are reported as IC50, i.e. the concentration of compound required to achieve 50% inhibition of [I-125]MIP-1α binding. In this assay, compounds of formula I have an IC50 between 0.004 and 10 μM.

Row | IC50 (hCCR2b) | IC50 (Human CCR5) | Structure (SMILES)
1 | 0.8 nM | – | COCC(C)Oc1ccc2c(COc3cccc4[nH]c(C(=O)N[C@H]5CC[C@](O)(CCN6CC[C@H](O)[C@@H](C)C6)CC5)cc34)coc2c1 (mixture of isomers) [Example 17, 4-[6-((RS)-2-Methoxy-1-methyl-ethoxy)-benzofuran-3-ylmethoxy]-1H-indole-2-carboxylic acid {4-hydroxy-4-[2-((3S,4S)-4-hydroxy-3-methyl-piperidin-1-yl)-ethyl]-cyclohexyl}-amide]
2 | 12 nM | 13.2 nM | C[C@H]1CN(CC[C@]2(O)CC[C@@H](NC(=O)c3cc4c(OCC5CCC5)cccc4[nH]3)CC2)CC[C@@H]1O [Example 1, 4-Cyclobutylmethoxy-1H-indole-2-carboxylic acid {4-hydroxy-4-[2-((3S,4S)-4-hydroxy-3-methyl-piperidin-1-yl)-ethyl]-cyclohexyl}-amide]
3 | – | 13.8 nM | C[C@H]1CN(CC[C@]2(O)CC[C@@H](NC(=O)c3cc4c(OCc5ccoc5)cccc4[nH]3)CC2)CC[C@@H]1O [Example 3, 4-(Furan-3-ylmethoxy)-1H-indole-2-carboxylic acid {4-hydroxy-4-[2-((3S,4S)-4-hydroxy-3-methyl-piperidin-1-yl)-ethyl]-cyclohexyl}-amide]
4 | 24.3 nM | 27 nM | C[C@H]1CN(CC[C@]2(O)CC[C@@H](NC(=O)c3cc4c(OCc5coc6c5C(=O)CCC6)cccc4[nH]3)CC2)CC[C@@H]1O [Example 6, 4-(4-Oxo-4,5,6,7-tetrahydro-benzofuran-3-ylmethoxy)-1H-indole-2-carboxylic acid {4-hydroxy-4-[2-((3S,4S)-4-hydroxy-3-methyl-piperidin-1-yl)-ethyl]-cyclohexyl}-amide]
5 | 13.8 nM | 11.9 nM | C[C@H]1CN(CC[C@]2(O)CC[C@@H](NC(=O)c3cc4c(OCc5coc6c5C(=O)CC(C)(C)C6)cccc4[nH]3)CC2)CC[C@@H]1O [Example 7, 4-(6,6-Dimethyl-4-oxo-4,5,6,7-tetrahydro-benzofuran-3-ylmethoxy)-1H-indole-2-carboxylic acid {4-hydroxy-4-[2-((3S,4S)-4-hydroxy-3-methyl-piperidin-1-yl)-ethyl]-cyclohexyl}-amide]
6 | 10.8 nM | 58.5 nM | C[C@H]1CN(CC[C@]2(O)CC[C@@H](NC(=O)c3cc4c(OC[C@@H]5COc6ccccc65)cccc4[nH]3)CC2)CC[C@@H]1O [Example 8, 4-[(S)-1-(2,3-Dihydro-benzofuran-3-yl)methoxy]-1H-indole-2-carboxylic acid {4-hydroxy-4-[2-((3S,4S)-4-hydroxy-3-methyl-piperidin-1-yl)-ethyl]-cyclohexyl}-amide]
7 | 1.5 nM | 10.6 nM | COc1cccc2occ(COc3cccc4[nH]c(C(=O)N[C@H]5CC[C@](O)(CCN6CC[C@H](O)[C@@H](C)C6)CC5)cc34)c12 [Example 10, 4-(4-Methoxy-benzofuran-3-ylmethoxy)-1H-indole-2-carboxylic acid {4-hydroxy-4-[2-((3S,4S)-4-hydroxy-3-methyl-piperidin-1-yl)-ethyl]-cyclohexyl}-amide]
8 | 2.3 nM | – | C[C@H]1CN(CC[C@]2(O)CC[C@@H](NC(=O)c3cc4c(OCc5coc6cc(F)cc(F)c56)cccc4[nH]3)CC2)CC[C@@H]1O [Example 11, 4-(4,6-Difluoro-benzofuran-3-ylmethoxy)-1H-indole-2-carboxylic acid {4-hydroxy-4-[2-((3S,4S)-4-hydroxy-3-methyl-piperidin-1-yl)-ethyl]-cyclohexyl}-amide]
9 | 0.2 nM | 0.5 nM | C[C@H]1CN(CC[C@]2(O)CC[C@@H](NC(=O)c3cc4c(OCc5coc6ccc(Cl)cc56)cccc4[nH]3)CC2)CC[C@@H]1O [Example 12, 4-(5-Chloro-benzofuran-3-ylmethoxy)-1H-indole-2-carboxylic acid {4-hydroxy-4-[2-((3S,4S)-4-hydroxy-3-methyl-piperidin-1-yl)-ethyl]-cyclohexyl}-amide]
10 | 2.7 nM | 5.8 nM | COc1ccc2c(COc3cccc4[nH]c(C(=O)N[C@H]5CC[C@](O)(CCN6CC[C@H](O)[C@@H](C)C6)CC5)cc34)coc2c1 [Example 13, 4-(6-Methoxy-benzofuran-3-ylmethoxy)-1H-indole-2-carboxylic acid {4-hydroxy-4-[2-((3S,4S)-4-hydroxy-3-methyl-piperidin-1-yl)-ethyl]-cyclohexyl}-amide]
11 | 0.7 nM | – | COCCCOc1ccc2c(COc3cccc4[nH]c(C(=O)N[C@H]5CC[C@](O)(CCN6CC[C@H](O)[C@@H](C)C6)CC5)cc34)coc2c1 [Example 19, 4-[6-(3-Methoxy-propoxy)-benzofuran-3-ylmethoxy]-1H-indole-2-carboxylic acid {4-hydroxy-4-[2-((3S,4S)-4-hydroxy-3-methyl-piperidin-1-yl)-ethyl]-cyclohexyl}-amide]
12 | 0.9 nM | 3.2 nM | CCOCCCOc1ccc2c(COc3cccc4[nH]c(C(=O)N[C@H]5CC[C@](O)(CCN6CC[C@H](O)[C@@H](C)C6)CC5)cc34)coc2c1 [Example 20, 4-[6-(3-Ethoxy-propoxy)-benzofuran-3-ylmethoxy]-1H-indole-2-carboxylic acid {4-hydroxy-4-[2-((3S,4S)-4-hydroxy-3-methyl-piperidin-1-yl)-ethyl]-cyclohexyl}-amide]
13 | 1.6 nM | 9 nM | C[C@H]1CN(CC[C@]2(O)CC[C@@H](NC(=O)c3cc4c(OCc5coc6cc(O[C@H]7CCOC7)ccc56)cccc4[nH]3)CC2)CC[C@@H]1O [Example 21, 4-{6-[(S)-(Tetrahydro-furan-3-yl)oxy]-benzofuran-3-ylmethoxy}-1H-indole-2-carboxylic acid {4-hydroxy-4-[2-((3S,4S)-4-hydroxy-3-methyl-piperidin-1-yl)-ethyl]-cyclohexyl}-amideamide]
14 | 7.4 nM | – | C[C@H]1CN(CC[C@]2(O)CC[C@@H](NC(=O)c3cc4c(OCc5coc6cc(F)ccc56)cccc4[nH]3)CC2)CC[C@@H]1O [Example 22, 4-(6-Fluoro-benzofuran-3-ylmethoxy)-1H-indole-2-carboxylic acid {4-hydroxy-4-[2-((3S,4S)-4-hydroxy-3-methyl-piperidin-1-yl)-ethyl]-cyclohexyl}-amide]
15 | 12.5 nM | 12.1 nM | COc1cccc2c(COc3cccc4[nH]c(C(=O)N[C@H]5CC[C@](O)(CCN6CC[C@H](O)[C@@H](C)C6)CC5)cc34)coc12 [Example 23, 4-(7-Methoxy-benzofuran-3-ylmethoxy)-1H-indole-2-carboxylic acid {4-hydroxy-4-[2-((3S,4S)-4-hydroxy-3-methyl-piperidin-1-yl)-ethyl]-cyclohexyl}-amide]
